# Measurements published in US20220081412A1, “QUINOLINYL-PYRAZINE-CARBOXAMIDE COMPOUNDS AND USES THEREOF” (The Regents of the University of Michigan, priority 2018, published 2022).
# Tested on: cancer cells
# Experiment: Proteomics study (up- and downregulated proteins)
# Format: cell-based
# Conditions: for Hydroxymethylglutaryl-CoA synthase, cytoplasmic (HMGCS1) protein: proteomics
# Source text: Proteomics provide a comprehensive understanding of mechanisms that are responsible for the cytotoxicity of anticancer drugs, and based on the expression of protein helps in identification of drug targets (see, Wang, Y.; et al., Met Based Drugs. 2008, 1-9). One of the disadvantages of proteomics is membrane-bound proteins due to their poor solubility and low abundance, are disproportionally represented in proteome profiles (see, Smith, C. Nature, 2004, 428, 225-231). Identification of target proteins utilizing proteomics technique coupled with mass spectrometry is an evolving technology platform that has the potential to identify novel proteins involved in key biological processes in cells. There are two mass spectrometry-based methods currently used for protein profiling. The use of high-resolution two-dimensional electrophoresis to separate proteins from different samples, followed by selection and staining of differentially expressed proteins to be identified by mass spectrometry is the more established method. In the second approach isotope coded affinity tag (ICAT) reagents are utilized to differentially label proteins from two different complex mixtures, that are then digested to yield labeled peptides. The labeled mixtures are then combined, the peptides separated by multidimensional liquid chromatography and analyzed by tandem mass spectrometry. In this method, complexity of the mixtures omitting the non-cysteine residues is reduced as here the cysteine residues of proteins get covalently attached to the ICAT reagent. Proteomics coupled with bioinformatics process the raw mass spectral data into protein data (see, Yu, L. R.; Essentials of Genomic and Personalized Medicine 2010, 89-96). The most critical software programs take peptide mapping and/or tandem MS results and determine the protein or peptide sequence that are most closely related to the experimental data. One of the more intriguing MS-based proteomic techniques is to identify the proteins which are overexpressed thus aids in identification of the target protein of the given drug. There are several examples reported in literature about successful application of Bru-seq and proteomics for identification of mechanism of action of drugs.
# It is the second step in the mevalonate-dependent isoprenoid biosynthesis pathway. HMG-CoA is an intermediate in both cholesterol synthesis and ketogenesis. Thus, here the proteomics results are in accordance with the Bru-seq results, implying “cholesterol biosynthesis pathway” as key pathway activated by these series of compounds.
# Among its related pathways are regulation of cholesterol biosynthesis by SREBP (SREBF) and terpenoid backbone biosynthesis.
# [1] = protein: 28S ribosomal protein S16, mitochondrial, downregulated
# [2] = protein: 28S ribosomal protein S17, mitochondrial, downregulated
# [3] = protein: 28S ribosomal protein S18b, mitochondrial, downregulated
# [4] = protein: 28S ribosomal protein S22, mitochondrial, downregulated
# [5] = protein: 28S ribosomal protein S25, mitochondrial, downregulated
# [6] = protein: 40S ribosomal protein S8, upregulated
# [7] = protein: 40S ribosomal protein S26, upregulated
# [8] = protein: 40S ribosomal protein S30, upregulated
# [9] = protein: 60S ribosomal protein L19, upregulated
# [10] = protein: 60S ribosomal protein L27a, upregulated
# [11] = protein: 60S ribosomal protein L36a-like, upregulated
# [12] = protein: 60S ribosomal protein L37, upregulated
# [13] = protein: Aconitate hydratase, mitochondrial, downregulated
# [14] = protein: Acyl-CoA desaturase, upregulated
# [15] = protein: Alanine aminotransferase 2, upregulated
# [16] = protein: Aldehyde dehydrogenase X, downregulated
# [17] = protein: Apolipoprotein A-I, upregulated
# [18] = protein: Apolipoprotein B-100, upregulated
# [19] = protein: Apolipoprotein C-III, upregulated
# [20] = protein: Beta-2-glycoprotein 1, upregulated
# [21] = protein: Bleomycin hydrolase, upregulated
# [22] = protein: Constitutive coactivator of peroxisome proliferator-activated receptor gamma, downregulated
# [23] = protein: Copper-transporting ATPase 2, upregulated
# [24] = protein: D-dopachrome decarboxylase, downregulated
# [25] = protein: DNA topoisomerase 2-alpha, downregulated
# [26] = protein: Deoxyribonuclease-2-alpha, upregulated
# [27] = protein: Dermcidin, upregulated
# [28] = protein: Diphthine methyltransferase, upregulated
# [29] = protein: E3 ubiquitin-protein ligase TRIM69, upregulated
# [30] = protein: Elongation factor G, mitochondrial, downregulated
# [31] = protein: FAST kinase domain-containing protein 5, mitochondrial, downregulated
# [32] = protein: Filamin-C, upregulated
# [33] = protein: GH3 domain-containing protein, upregulated
# [34] = protein: Histone H1.2, downregulated
# [35] = protein: Hydroxymethylglutaryl-CoA synthase, cytoplasmic, upregulated
# [36] = protein: Interleukin-36 beta, downregulated
# [37] = protein: Iron-responsive element-binding protein 2, upregulated
# [38] = protein: Keratin, type I cytoskeletal 20, downregulated
# [39] = protein: Kinesin-like protein KIF27, upregulated
# [40] = protein: LanC-like protein 2, downregulated
# [41] = protein: MBT domain-containing protein 1, downregulated
# [42] = protein: Mixed lineage kinase domain-like protein, upregulated
# [43] = protein: Muellerian-inhibiting factor, upregulated
# [44] = protein: NADH dehydrogenase [ubiquinone] 1 alpha subcomplex subunit 6, downregulated
# [45] = protein: NADH dehydrogenase [ubiquinone] iron-sulfur protein 4, mitochondrial, downregulated
# [46] = protein: NADH-ubiquinone oxidoreductase 75 kDa subunit, mitochondrial, downregulated
# [47] = protein: Nucleolar transcription factor 1, downregulated
# [48] = protein: Phosphatidylserine synthase 1, upregulated
# [49] = protein: Proliferation marker protein Ki-67, downregulated
# [50] = protein: Protein FAM83H, downregulated
# [51] = protein: Protein FAM177A1, upregulated
# [52] = protein: Protein PIMREG, upregulated
# [53] = protein: Protein cornichon homolog 4, upregulated
# [54] = protein: Putative ankyrin repeat domain-containing protein 31, upregulated
# [55] = protein: RNA-binding motif protein, X chromosome, downregulated
# [56] = protein: Scaffold attachment factor B1, downregulated
# [57] = protein: Scaffold attachment factor B2, downregulated
# [58] = protein: Sequestosome-1, upregulated
# [59] = protein: Serine/threonine-protein kinase PLK4, upregulated
# [60] = protein: Squalene synthase, upregulated
# [61] = protein: Transcription elongation factor 1 homolog, downregulated
smiles,measurement,setting,value
"CCN(CC)CCCC(C)Nc1cnc(C(=O)Nc2cc(C)cc3cccnc23)cn1 (stereo not drawn) [J4, 5-((5-(diethylamino)pentan-2-yl)amino)-N-(6-methylquinolin-8-yl)pyrazine-2-carboxamide]",Abundance ratio,[1],0.403
same,Abundance ratio (log2),[1],−1.31
same,Abundance ratio,[2],0.452
same,Abundance ratio (log2),[2],−1.15
same,Abundance ratio,[3],0.337
same,Abundance ratio (log2),[3],−1.57
same,Abundance ratio,[4],0.432
same,Abundance ratio (log2),[4],−1.21
same,Abundance ratio,[5],0.402
same,Abundance ratio (log2),[5],−1.32
same,Abundance ratio,[6],1.777
same,Abundance ratio (log2),[6],0.83
same,Abundance ratio,[7],1.717
same,Abundance ratio (log2),[7],0.78
same,Abundance ratio,[8],1.649
same,Abundance ratio (log2),[8],0.72
same,Abundance ratio,[9],1.761
same,Abundance ratio (log2),[9],0.82
same,Abundance ratio,[10],1.713
same,Abundance ratio (log2),[10],0.78
same,Abundance ratio,[11],1.623
same,Abundance ratio (log2),[11],0.7
same,Abundance ratio,[12],1.808
same,Abundance ratio (log2),[12],0.85
same,Abundance ratio,[13],0.489
same,Abundance ratio (log2),[13],−1.03
same,Abundance ratio,[14],2.148
same,Abundance ratio (log2),[14],1.1
same,Abundance ratio,[15],1.616
same,Abundance ratio (log2),[15],0.69
same,Abundance ratio,[16],0.278
same,Abundance ratio (log2),[16],−1.85
same,Abundance ratio,[17],1.891
same,Abundance ratio (log2),[17],0.92
same,Abundance ratio,[18],2.151
same,Abundance ratio (log2),[18],1.1
same,Abundance ratio,[19],2.072
same,Abundance ratio (log2),[19],1.05
same,Abundance ratio,[20],1.622
same,Abundance ratio (log2),[20],0.7
same,Abundance ratio,[21],1.845
same,Abundance ratio (log2),[21],0.88
same,Abundance ratio,[22],0.419
same,Abundance ratio (log2),[22],−1.25
same,Abundance ratio,[23],1.807
same,Abundance ratio (log2),[23],0.85
same,Abundance ratio,[24],0.487
same,Abundance ratio (log2),[24],−1.04
same,Abundance ratio,[25],0.381
same,Abundance ratio (log2),[25],−1.39
same,Abundance ratio,[26],1.649
same,Abundance ratio (log2),[26],0.72
same,Abundance ratio,[27],2.454
same,Abundance ratio (log2),[27],1.3
same,Abundance ratio,[28],1.633
same,Abundance ratio (log2),[28],0.71
same,Abundance ratio,[29],1.906
same,Abundance ratio (log2),[29],0.93
same,Abundance ratio,[30],0.245
same,Abundance ratio (log2),[30],−2.03
same,Abundance ratio,[31],0.382
same,Abundance ratio (log2),[31],−1.39
same,Abundance ratio,[32],2.026
same,Abundance ratio (log2),[32],1.02
same,Abundance ratio,[33],1.742
same,Abundance ratio (log2),[33],0.8
same,Abundance ratio,[34],0.462
same,Abundance ratio (log2),[34],−1.11
same,Abundance ratio,[35],1.944
same,Abundance ratio (log2),[35],0.96
same,Abundance ratio,[36],0.462
same,Abundance ratio (log2),[36],−1.12
same,Abundance ratio,[37],2.136
same,Abundance ratio (log2),[37],1.09
same,Abundance ratio,[38],0.439
same,Abundance ratio (log2),[38],−1.19
same,Abundance ratio,[39],1.89
same,Abundance ratio (log2),[39],0.92
same,Abundance ratio,[40],0.327
same,Abundance ratio (log2),[40],−1.61
same,Abundance ratio,"protein: Lumican, upregulated",1.612
same,Abundance ratio (log2),"protein: Lumican, upregulated",0.69
same,Abundance ratio,[41],0.233
same,Abundance ratio (log2),[41],−2.1
same,Abundance ratio,[42],1.861
same,Abundance ratio (log2),[42],0.9
same,Abundance ratio,[43],1.824
same,Abundance ratio (log2),[43],0.87
same,Abundance ratio,[44],0.473
same,Abundance ratio (log2),[44],−1.08
same,Abundance ratio,[45],0.468
same,Abundance ratio (log2),[45],−1.1
same,Abundance ratio,[46],0.488
same,Abundance ratio (log2),[46],−1.03
same,Abundance ratio,[47],0.484
same,Abundance ratio (log2),[47],−1.05
same,Abundance ratio,[48],1.946
same,Abundance ratio (log2),[48],0.96
same,Abundance ratio,[49],0.474
same,Abundance ratio (log2),[49],−1.08
same,Abundance ratio,[50],0.46
same,Abundance ratio (log2),[50],−1.12
same,Abundance ratio,[51],3.085
same,Abundance ratio (log2),[51],1.63
same,Abundance ratio,[52],1.711
same,Abundance ratio (log2),[52],0.77
same,Abundance ratio,[53],1.656
same,Abundance ratio (log2),[53],0.73
same,Abundance ratio,[54],1.786
same,Abundance ratio (log2),[54],0.84
same,Abundance ratio,[55],0.441
same,Abundance ratio (log2),[55],−1.18
same,Abundance ratio,[56],0.401
same,Abundance ratio (log2),[56],−1.32
same,Abundance ratio,[57],0.405
same,Abundance ratio (log2),[57],−1.3
same,Abundance ratio,[58],1.69
same,Abundance ratio (log2),[58],0.76
same,Abundance ratio,[59],3.158
same,Abundance ratio (log2),[59],1.66
same,Abundance ratio,[60],1.597
same,Abundance ratio (log2),[60],0.68
same,Abundance ratio,[61],0.364
same,Abundance ratio (log2),[61],−1.46
same,"Hydroxymethylglutaryl-CoA synthase, cytoplasmic (HMGCS1) protein",,upregulation
same,"Hydroxymethylglutaryl-CoA synthase, cytoplasmic (HMGCS1) protein",listed as JR-1-235,upregulated
